Here are results for eight molecules from patent US5336684A, “Oxidation products of cephalomannine” (Hauser Chemical Research, Inc., priority 1993, dated 1994).

Values after ≈ are worked out from the molar mass of the structure shown. Values joined by “and” are separate entries in the source; they are usually repeats but may differ in a detail not shown here. Identical values can stand only once. Like-named read-outs stand apart in the source and are kept apart here.

Series [1] concerns Tubulin. The experiment in a line: Tubulin Assembly. The series is classed as biochemical, bovine. The note with it: for Tubulin Assembly ED50/ED50 Taxol: ratio to taxol, <1 indicates greater activity than taxol; for Tubulin Assembly ED50 (concentration which reduces the supernatant protein concentration by 50%): tubulin 1 mg/ml, 37° C., 15 minutes, PEM buffer pH 6.9. An excerpt: (§1) Tubulin binding and cytotoxicity data for cephalomannine and the synthetic derivatives described herein are included for comparison. The tubulin testing was done exactly as described by Himes (Georg, G. I., et al., "Synthesis of Biologically Active Taxol Analogues with Modified Phenylisoserine Side Chains", J. Med. Chem. Vol 35:4230, (1992)), incorporated herein by reference. Taxol has been included in Table 1 for reference. […] A number less than 1 in these columns indicates greater activity than taxol. A number greater than 1 in these columns indicates lower activity than taxol. The error in the tests appears to be ±10-20%. […] These tests have been used and relied upon by experimentalists in this field to determine the potential efficacy of a taxol derivative for the treatment of cancer.
Tubulin free of microtubule-associated proteins was purified from bovine brain as previously described (Algaier, J., Himes, R. H., "The Effect of Dimethyl Sulfoxide on the Kinetics of Tubulin Assembly" Biochim. Biophys. Acta, Vol 954, pp 235-243, 1988). The assembly reaction was done at 37° C. in PEM buffer (0.1M Pipes, pH 6.9, 1 mM EGTA, and 1 mM MgSO4) at a protein concentration of 1 mg/ml (10 μM) in the presence of taxol or taxol analogues and 0.5 mM GTP. The reaction was monitored by the increase in the apparent absorbance at 350 nm.
^b Tubulin at 1 mg/ml was incubated with various concentrations of th
compounds at 37° C. for 15 minutes in 0.5 ml of PEM buffer (0.1 M
Pipes, 1 mM EGTA, 1 mM MgSO4, pH 6.9). Samples were centrifuged and
the protein concentration on the supernatant was determined.
^d The concentration in ng/ml which reduces the supernatant protein

The test system of the next series is B16 Melanoma cells. The experiment in a line: cells. Conditions: for IC50: Mus musculus; for B16 Proliferation ED50/ED50 Taxol: ratio to taxol, <1 indicates greater activity than taxol. It is filed as cell-based.
Text: as §1
Cells were seeded in 24-well plates at 7.5×10^4 cells/well and grown in Dulbecco's modified minimal essential medium (MEM) containing 10% bovine calf serum at 37° C. for 24 hours in a 97% humidified atmosphere of 5.5% CO2. The medium was then replaced with fresh medium containing taxol or its derivatives and dissolved in DMSO in concentrations ranging from 7.5×10^-9 M to 1×10^-7 M for taxol and other derivatives. The final concentration of DMSO in the cell medium was 0.5% or less. […] After 40 hours, the cells were released by trypsinization and counted in a Coulter counter.
^c B16 Melanoma cells were incubated with various concentrations of
the compounds for about 40h at 37° C.
^e The concentration in ng/ml which reduces the number of cells by 50

For series [2], the system named is tubulin. The note with it: Schiff et al. 1979; cited from earlier work.
The test system of the next series is cell. Conditions: when delivered to the cell; cited from earlier work.
The test system of series [3] is tubulin. The note with it: compared with taxol, cited from earlier work.
Series [4] concerns mouse macrophage-like J774.2 cells. The note with it: compared with taxol; cited from earlier work.
The subject of series [5] is P388 murine leukemia cells. Conditions: compared with taxol; cited from earlier work.
Series [6] relates to taxol resistant tumor cells. Conditions: compared with taxol; cited from earlier work.
The mark [7] stands for this setting: B16, 40 h, B16 melanoma cells, about 40h at 37° C., read-out: B16 Proliferation ED50 (concentration which reduces the number of cells by 50% compared to a control).

`CC[Si](CC)(CC)O[C@H]1C[C@H]2OC[C@@]2(OC(C)=O)[C@H]2[C@H](OC(=O)c3ccccc3)[C@]3(O)C[C@H](OC(=O)[C@H](O[Si](CC)(CC)CC)[C@@H](NC(=O)C(C)=O)c4ccccc4)C(C)=C([C@@H](OC(C)=O)C(=O)[C@]12C)C3(C)C` [Compound 7, 2',7-Bis(triethylsilyl)-α-ketoamide]: in the series with Tubulin [1], the “Tubulin Assembly ED50/ED50 Taxol” value is listed as more than 10 and the “Tubulin Assembly ED50 (concentration which reduces the supernatant protein concentration by 50%)” value was more than 8.54 µg/mL. In the series with B16 Melanoma cells (setting [7]), the IC50 was more than 8.54 µg/mL. In addition, the “B16 Proliferation ED50/ED50 Taxol” value in the series with B16 Melanoma cells was more than 380.

For the molecule `C/C=C(\C)C(=O)N[C@@H](c1ccccc1)[C@@H](O)C(=O)O[C@H]1C[C@@]2(O)[C@@H](OC(=O)c3ccccc3)[C@@H]3[C@]4(OC(C)=O)CO[C@@H]4C[C@H](O)[C@@]3(C)C(=O)[C@H](OC(C)=O)C(=C1C)C2(C)C` [Compound 3, cephalomannine], in the series on Tubulin [1], the “Tubulin Assembly ED50/ED50 Taxol” value was determined as 0.82. Besides, in the series with B16 Melanoma cells (B16, 40 h, read-out: B16 Proliferation ED50 (concentration which reduces the number of cells by 50% compared to a control)), the IC50 was found to be 0.0335 µg/mL (≈ 0.0403 µM). Moreover, the “B16 Proliferation ED50/ED50 Taxol” value in the series with B16 Melanoma cells is recorded as 1.49.

For `CC(=O)O[C@H]1C(=O)[C@@]2(C)[C@H]([C@H](OC(=O)c3ccccc3)[C@]3(O)C[C@H](OC(=O)[C@H](O)[C@@H](NC(=O)c4ccccc4)c4ccccc4)C(C)=C1C3(C)C)[C@]1(OC(C)=O)CO[C@@H]1C[C@@H]2O` [Compound 1, taxol, reference compound], the “Tubulin Assembly ED50/ED50 Taxol” value with Tubulin [1] is 1.26; with Tubulin [1] (listed as taxol), “approximately 1”. For the same molecule, the “ED50 for taxol in the assembly assay” value with Tubulin [1] (taxol reference value for the ratios (footnotes g, h, i), 15 min) was 0.854 µg/mL and 0.97 µg/mL and 0.85 µg/mL. The IC50 was 0.0214 µg/mL (≈ 0.0251 µM) in the series on B16 Melanoma cells (setting [7]) and 0.0225 µg/mL in the series on B16 Melanoma cells (B16, 40 h, taxol reference value for the ratios (footnotes g, h, i), read-out: ED50 for taxol in the B16 assay). Also, the “B16 Proliferation ED50/ED50 Taxol” value in the series on B16 Melanoma cells was 0.95. Besides, in the series on B16 Melanoma cells (taxol reference value for the ratios (footnotes g, h, i), 2400 min), the “ED50 for taxol in the B16 assay” value worked out at 0.0227 µg/mL. The tubulin binding result in the series on tubulin [2] is reported as “significant tubulin binding”. In addition, the cytotoxic activity entry in the series with cell was “cytotoxic activity”.

For `CC(=O)O[C@@]12CO[C@@H]1C[C@H](O)[C@@]1(C)C(=O)[C@H](O)C3=C(C)[C@@H](OC(=O)[C@H](O)[C@@H](NC(=O)OC(C)(C)C)c4ccccc4)C[C@@](O)([C@@H](OC(=O)c4ccccc4)[C@H]21)C3(C)C` [Compound 2, taxotere], the “activity as a promoter of tubulin polymerization vs taxol” value in the series with tubulin [3] is listed as “slightly more active”. The “in vitro tubulin binding activity of taxotere” value with tubulin [3] (in vitro) is reported as “enhanced in vitro tubulin binding activity”. The “potency as an inhibitor of replication vs taxol, J774.2 cells” value in series [4] is 1.5 fold. In series [5], the “potency as an inhibitor of replication vs taxol, P388 cells” value is on record as 1.5 fold. For the same molecule, the “potency in taxol resistant tumor cells vs taxol” value in series [6] was “at least fivefold more potent”.

For the molecule `CC(=O)O[C@H]1C(=O)[C@]2(C)[C@@H](OC(C)=O)C[C@H]3OC[C@@]3(OC(C)=O)[C@H]2[C@H](OC(=O)c2ccccc2)[C@]2(O)C[C@H](OC(=O)[C@H](OC(C)=O)[C@@H](NC(=O)C(C)=O)c3ccccc3)C(C)=C1C2(C)C` [Compound 6, 2',7-bis(acetyl)-α-ketoamide], in the series on Tubulin [1], the “Tubulin Assembly ED50/ED50 Taxol” value was more than 10 and the “Tubulin Assembly ED50 (concentration which reduces the supernatant protein concentration by 50%)” value is more than 8.54 µg/mL. Also, the IC50 in the series on B16 Melanoma cells (setting [7]) is more than 0.854 µg/mL. Moreover, the “B16 Proliferation ED50/ED50 Taxol” value with B16 Melanoma cells was more than 38.

For the molecule `CC(=O)O[C@H]1C(=O)[C@@]2(C)[C@H]([C@H](OC(=O)c3ccccc3)[C@]3(O)C[C@H](OC(=O)[C@H](OC(C)=O)[C@@H](NC(=O)C(C)=O)c4ccccc4)C(C)=C1C3(C)C)[C@]1(OC(C)=O)CO[C@@H]1C[C@@H]2O` [Compound 5, 240 -Acetyl-α-ketoamide], in the series with Tubulin [1], the “Tubulin Assembly ED50/ED50 Taxol” value is listed as more than 10 and the “Tubulin Assembly ED50 (concentration which reduces the supernatant protein concentration by 50%)” value was more than 8.54 µg/mL. In addition, the IC50 with B16 Melanoma cells (B16 melanoma cells, about 40h at 37° C., read-out: B16 Proliferation ED50 (concentration which reduces the number of cells by 50% compared to a control)) was more than 0.854 µg/mL. For the same molecule, the “B16 Proliferation ED50/ED50 Taxol” value in the series on B16 Melanoma cells is listed as more than 38.

On to `CC(=O)O[C@H]1C(=O)[C@@]2(C)[C@H]([C@H](OC(=O)c3ccccc3)[C@]3(O)C[C@H](OC(=O)[C@H](O)[C@@H](NC(=O)C(C)(O)C(C)O)c4ccccc4)C(C)=C1C3(C)C)[C@]1(OC(C)=O)CO[C@@H]1C[C@@H]2O` (some centres unmarked) [Compound 8, Cephalomannine diol], for which, in the series on Tubulin [1], the “Tubulin Assembly ED50/ED50 Taxol” value worked out at 3.4 and the “Tubulin Assembly ED50 (concentration which reduces the supernatant protein concentration by 50%)” value is 3.3 µg/mL. Further, the IC50 in the series on B16 Melanoma cells (setting [7]) was more than 0.854 µg/mL. Also, the “B16 Proliferation ED50/ED50 Taxol” value with B16 Melanoma cells is given as more than 38.

In the case of `CC(=O)O[C@H]1C(=O)[C@@]2(C)[C@H]([C@H](OC(=O)c3ccccc3)[C@]3(O)C[C@H](OC(=O)[C@H](O)[C@@H](NC(=O)C(C)=O)c4ccccc4)C(C)=C1C3(C)C)[C@]1(OC(C)=O)CO[C@@H]1C[C@@H]2O` [Compound 4ab], the “activity in the in vitro tubulin assembly test relative to taxol” value in the series on Tubulin [1] (compared to taxol) is recorded as “comparable to or superior to taxol”. Also, the “tubulin binding activity” value in the series with Tubulin [1] (in vitro testing) is “good”. Further, in the series on Tubulin [1], the “Tubulin Assembly ED50/ED50 Taxol” value is 1.46 and the “Tubulin Assembly ED50 (concentration which reduces the supernatant protein concentration by 50%)” value is 1.24 µg/mL. In addition, in the series with B16 Melanoma cells (setting [7]), the IC50 stood at 0.0171 µg/mL (≈ 0.0209 µM). In addition, in the series on B16 Melanoma cells (compared to taxol), the “activity in the B16 Proliferation test relative to taxol” value was “comparable to or superior to taxol”. In addition, the “cytotoxicity activity” value in the series on B16 Melanoma cells (in vitro testing) is given as “good”. Moreover, the “B16 Proliferation ED50/ED50 Taxol” value in the series on B16 Melanoma cells is recorded as 0.75.
